Patent US20250129054A1 (Terran Biosciences Inc., priority 2022, published 2025)
“And” between values parts separate entries of the source, which are not always exact repeats. Identical values can stand only once. Like-named read-outs stand apart in the source and are kept apart here.

Tests used:
[1] = cited from earlier work
[2] = Serial tail vein bleed PK study in SD rats: methylone measured in plasma after IV or oral methylone or oral methylone prodrugs; type: in vivo, Sprague Dawley rats; details: methylone in plasma, male SD rats; for half-life: read-out: T½ (converted)
Outline: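 Three male Sprague-Dawley rats received methylone at 1 mg/kg IV (saline) or 10 mg/kg PO, or prodrugs at 10 mg/kg PO in 10% DMSO/20% PEG400/70% water, doses as methylone equivalents. Methylone measured in serial plasma samples. Non-compartmental PK parameters derived from nominal doses.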

[3] = male, Sprague-Dawley, rat, plasma, iv, 1 mg/kg, methylone 1 mg/kg IV, individual animals
[4] = male, Sprague-Dawley, rat, plasma, iv, 1 mg/kg, methylone 1 mg/kg IV, mean
[5] = male, Sprague-Dawley, rat, plasma, po, 10 mg/kg, methylone 10 mg/kg oral, individual animals
[6] = male, Sprague-Dawley, rat, plasma, po, 10 mg/kg, methylone 10 mg/kg oral, mean
[7] = methylone 1 mg/kg IV, individual animals
[8] = methylone 10 mg/kg oral, individual animals

Compound: CNC(C)C(=O)c1ccc2c(c1)OCO2 (racemic) [Methylone, 3,4-methylenedioxy-N-methylcathinone, reference compound]
- reported time to achieve peak effects ([1]; after oral dosing, Poyatos et al., 2021): 1 to 2 h
- Oral Methylone Dose for Drug Activity Level Very Strong ([1]; human, oral, modified from WHO 2014): ≥270 mg
- prolongation of duration of effects by re-dose ([1]; re-dose of one-third to one-half the initial dose, WHO 2014): approximately one
- AUC(0-t) [2, 3]: 163 ng·h/mL
- AUC(0-inf) ([2]; male, Sprague-Dawley, rat, plasma, iv, 1 mg/kg, methylone 1 mg/kg IV, individual animals, read-out: AUC0-inf): 168 ng·h/mL
- Cmax ([2]; male, Sprague-Dawley, rat, plasma, iv, 1 mg/kg, methylone 1 mg/kg IV, individual animals, read-out: Cmax): 192 ng/mL
- Tmax ([2]; male, Sprague-Dawley, rat, plasma, iv, 1 mg/kg, methylone 1 mg/kg IV, individual animals, read-out: Tmax): 15 min
- half-life [2, 3]: 24.6 min
- AUC(0-t) [2, 4]: 142 ng·h/mL
- AUC(0-inf) ([2]; male, Sprague-Dawley, rat, plasma, iv, 1 mg/kg, methylone 1 mg/kg IV, mean, read-out: AUC0-inf): 145 ng·h/mL
- Cmax ([2]; male, Sprague-Dawley, rat, plasma, iv, 1 mg/kg, methylone 1 mg/kg IV, mean, read-out: Cmax): 172 ng/mL
- Tmax ([2]; male, Sprague-Dawley, rat, plasma, iv, 1 mg/kg, methylone 1 mg/kg IV, mean, read-out: Tmax): 15 min
- half-life [2, 4]: 23.7 min
- AUC(0-t) [2, 5]: 636 ng·h/mL
- AUC(0-inf) ([2]; male, Sprague-Dawley, rat, plasma, po, 10 mg/kg, methylone 10 mg/kg oral, individual animals, read-out: AUC0-inf): 729 ng·h/mL
- half-life [2, 5]: 135 min
- AUC(0-t) [2, 6]: 681 ng·h/mL
- AUC(0-inf) ([2]; male, Sprague-Dawley, rat, plasma, po, 10 mg/kg, methylone 10 mg/kg oral, mean, read-out: AUC0-inf): 890 ng·h/mL
- Cmax ([2]; male, Sprague-Dawley, rat, plasma, po, 10 mg/kg, methylone 10 mg/kg oral, mean, read-out: Cmax): 170 ng/mL
- Tmax ([2]; male, Sprague-Dawley, rat, plasma, po, 10 mg/kg, methylone 10 mg/kg oral, mean, read-out: Tmax): 70.2 min
- half-life [2, 6]: 148 min
- AUC0-last [2, 7]: 134 ng·h/mL and 128 ng·h/mL
- AUC(0-inf) [2, 7]: 136 ng·h/mL and 131 ng·h/mL
- Cmax [2, 7]: 165 ng/mL and 159 ng/mL
- Tlast [2, 7]: 2.0 h
- T½ [2, 7]: 22.8 min and 24 min
- Tlast ([2]; methylone 1 mg/kg IV, mean): 2.0 h
- AUC0-last [2, 8]: 520 ng·h/mL and 888 ng·h/mL
- AUC(0-inf) [2, 8]: 1050 ng·h/mL
- Cmax [2, 8]: 130 ng/mL and 119 ng/mL and 260 ng/mL
- Tlast [2, 8]: 7.00 h
- Tmax [2, 8]: 60 min and 120 min and 30 min
- T½ [2, 8]: 160 min
- Tlast ([2]; methylone 10 mg/kg oral, mean): 7.00 h
